Where a name gives a salt, the structure may show the parent alone.
Target: recombinant human HPK1 (Homo sapiens (Human), UniProt Q92918)
Test: HPK1 kinase assay (Promega ADP-Glo kinase assay)
Type: biochemical
Details: In vitro activity against HPK1, 5 ng HPK1, MBP substrate, ATP 25 μM, 30° C. 40 minutes
Summary of the method: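 IC50 was derived from percent inhibition across a range of compound concentrations. Recombinant human HPK1 (5 ng) phosphorylated MBP for 40 min at 30 °C in Tris buffer pH 7.5 with 20 mM MgCl2, with ATP added as a 25 µM solution and 0.5% DMSO. ADP formed was read by ADP-Glo luminescence.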

Chain of recombinant human HPK1 (Q92918 whole entry): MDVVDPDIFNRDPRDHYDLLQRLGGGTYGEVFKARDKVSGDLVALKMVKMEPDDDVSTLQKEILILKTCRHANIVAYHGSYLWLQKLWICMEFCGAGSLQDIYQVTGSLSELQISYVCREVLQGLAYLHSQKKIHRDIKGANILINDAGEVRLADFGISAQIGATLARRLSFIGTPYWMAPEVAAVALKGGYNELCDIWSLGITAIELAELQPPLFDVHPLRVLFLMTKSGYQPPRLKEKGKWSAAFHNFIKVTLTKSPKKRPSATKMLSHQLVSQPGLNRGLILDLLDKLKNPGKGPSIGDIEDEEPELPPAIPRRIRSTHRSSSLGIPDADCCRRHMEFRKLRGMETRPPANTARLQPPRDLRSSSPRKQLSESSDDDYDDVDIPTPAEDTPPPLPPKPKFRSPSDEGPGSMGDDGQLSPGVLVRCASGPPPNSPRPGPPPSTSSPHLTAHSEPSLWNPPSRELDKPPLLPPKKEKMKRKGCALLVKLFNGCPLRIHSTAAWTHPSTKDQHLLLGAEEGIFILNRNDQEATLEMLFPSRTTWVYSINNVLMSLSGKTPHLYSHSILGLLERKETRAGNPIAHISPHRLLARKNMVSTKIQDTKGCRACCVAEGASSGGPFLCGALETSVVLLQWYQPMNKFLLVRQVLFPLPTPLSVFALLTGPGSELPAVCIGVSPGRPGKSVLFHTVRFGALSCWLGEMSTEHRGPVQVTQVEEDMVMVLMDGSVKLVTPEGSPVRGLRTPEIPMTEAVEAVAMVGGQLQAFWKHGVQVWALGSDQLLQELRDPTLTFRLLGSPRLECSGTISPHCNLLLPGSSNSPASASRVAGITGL

| IC50 [nM] | Compound |
| --- | --- |
| 101 to 500 | CC(=O)N1CC(Oc2c(F)c(Cl)c(-c3cn4cc(NC(=O)[C@@H]5C[C@@H]5F)nc4cn3)c3cn[nH]c23)C1 [Example 142, (1S,2S)-N-(6-(7-((1-acetylazetidin-3-yl)oxy)-5-chloro-6-fluoro-1H-indazol-4-yl)imidazo[1,2-a]pyrazin-2-yl)-2-fluorocyclopropane-1-carboxamide] |
| 101 to 500 | CC(C)Nc1c(F)c(Cl)c(-c2cn3cc(NC(=O)C4CCN4)nc3cn2)c2cn[nH]c12 (centres unmarked) [Example 108, N-(6-(5-chloro-6-fluoro-7-(isopropylamino)-1H-indazol-4-yl)imidazo[1,2-a]pyrazin-2-yl)azetidine-2-carboxamide] |
| < 100 | O=C(Nc1cn2cc(-c3c(C(F)(F)F)c(F)c(C(O)C4CC4)c4[nH]ncc34)ncc2n1)[C@@H]1C[C@@H]1F (stereo partly drawn) [Example 36, (1S,2S)-N-(6-(7-(cyclopropyl(hydroxy)methyl)-6-fluoro-5-(trifluoromethyl)-1H-indazol-4-yl)imidazo[1,2-a]pyrazin-2-yl)-2-fluorocyclopropane-1-carboxamide] |
| < 100 | CC(C)Nc1c(F)c(Cl)c(-c2cn3cc(NC(=O)CN)nc3cn2)c2cn[nH]c12 [Example 80, 2-amino-N-(6-(5-chloro-6-fluoro-7-(isopropylamino)-1H-indazol-4-yl)imidazo[1,2-a]pyrazin-2-yl)acetamide] |
| < 100 | CC(=O)NC(C)c1c(F)c(C(F)F)c(-c2cn3cc(NC(=O)[C@@H]4C[C@@H]4F)nc3cn2)c2cn[nH]c12 (stereo partly drawn) [Example 53, (1S,2S)-N-(6-(7-(1-acetamidoethyl)-5-(difluoromethyl)-6-fluoro-1H-indazol-4-yl)imidazo[1,2-a]pyrazin-2-yl)-2-fluorocyclopropane-1-carboxamide] |
| < 100 | CC(c1c(F)c(C(F)F)c(-c2cn3cc(NC(=O)[C@@H]4C[C@@H]4F)nc3cn2)c2cn[nH]c12)N1C(=O)c2ccccc2C1=O (stereo partly drawn) [Example 50, (1S,2S)-N-(6-(5-(difluoromethyl)-7-(1-(1,3-dioxoisoindolin-2-yl)ethyl)-6-fluoro-1H-indazol-4-yl)imidazo[1,2-a]pyrazin-2-yl)-2-fluorocyclopropane-1-carboxamide] |
| < 100 | CC(=O)Nc1cn2cc(-c3c(Cl)c(F)c([C@@H](C)NC(=O)C(F)(F)F)c4[nH]ncc34)ncc2n1 [Example 139, (R)-N-(1-(4-(2-acetamidoimidazo[1,2-a]pyrazin-6-yl)-5-chloro-6-fluoro-1H-indazol-7-yl)ethyl)-2,2,2-trifluoroacetamide] |
| 501 to 1000 | CC(C)Nc1c(F)c(C(=O)O)c(-c2cn3cc(NC(=O)[C@@H]4C[C@@H]4F)nc3cn2)c2cn[nH]c12 [Example 73, 6-fluoro-4-(2-((1S,2S)-2-fluorocyclopropane-1-carboxamido)imidazo[1,2-a]pyrazin-6-yl)-7-(isopropylamino)-1H-indazole-5-carboxylic acid] |
| 101 to 500 | COC(=O)C1OC(N(c2c(F)c(Cl)c(-c3cn4cc(NC(=O)[C@@H]5C[C@@H]5F)nc4cn3)c3cn[nH]c23)C(C)C)C(OC(C)=O)C(OC(C)=O)C1OC(C)=O (stereo partly drawn) [Example 18, 2-((5-chloro-6-fluoro-4-(2-((1S,2S)-2-fluorocyclopropane-1-carboxamido)imidazo[1,2-a]pyrazin-6-yl)-1H-indazol-7-yl)(isopropyl)amino)-6-(methoxycarbonyl)tetrahydro-2H-pyran-3,4,5-triyl triacetate] |
| 501 to 1000 | CC(=O)Nc1cn2cc(-c3c(Cl)c(F)c(OC4CNC4)c4[nH]ncc34)ncc2n1 [Example 147, N-(6-(7-(azetidin-3-yloxy)-5-chloro-6-fluoro-1H-indazol-4-yl)imidazo[1,2-a]pyrazin-2-yl)acetamide formate] |
| < 100 | CC(=O)Nc1cn2cc(-c3c(Cl)c(F)c(C(O)C4CC4)c4[nH]ncc34)ncc2n1 (centres unmarked) [Example 152, N-(6-(5-chloro-7-(cyclopropyl(hydroxy)methyl)-6-fluoro-1H-indazol-4-yl)imidazo[1,2-a]pyrazin-2-yl)acetamide] |
| < 100 | CC(C)Nc1c(F)c(Cl)c(-c2cn3cc(NC(=O)N4CCN(C)CC4)nc3cn2)c2cn[nH]c12 [Example 92, N-(6-(5-chloro-6-fluoro-7-(isopropylamino)-1H-indazol-4-yl)imidazo[1,2-a]pyrazin-2-yl)-4-methylpiperazine-1-carboxamide formate] |
| < 100 | CCC(=O)Nc1cn2cc(-c3c(C(F)F)c(F)c(NC(C)C)c4[nH]ncc34)ncc2n1 [Example 155, N-(6-(5-(difluoromethyl)-6-fluoro-7-(isopropylamino)-1H-indazol-4-yl)imidazo[1,2-a]pyrazin-2-yl)propionamide] |
| 101 to 500 | CC(=O)Nc1cn2cc(-c3c(Cl)c(F)c([C@H](C)N[S@@+]([O-])C(C)(C)C)c4[nH]ncc34)ncc2n1 [Example 134, N-(6-(7-((S)-1-(((S)-tert-butylsulfinyl)amino)ethyl)-5-chloro-6-fluoro-1H-indazol-4-yl)imidazo[1,2-a]pyrazin-2-yl)acetamide] |
| < 100 | COc1c(F)c(NC(C)C)c2[nH]ncc2c1-c1cn2cc(NC(=O)[C@@H]3C[C@@H]3F)nc2cn1 [Example 141, (1S,2S)-2-fluoro-N-(6-(6-fluoro-7-(isopropylamino)-5-methoxy-1H-indazol-4-yl)imidazo[1,2-a]pyrazin-2-yl)cyclopropane-1-carboxamide] |
| < 100 | Cc1c(F)c(C2CCCC2O)c2[nH]ncc2c1-c1cn2cc(NC(=O)[C@@H]3C[C@@H]3F)nc2cn1 (stereo partly drawn) [Example 9, (1S,2S)-2-fluoro-N-(6-(6-fluoro-7-(2-hydroxycyclopentyl)-5-methyl-1H-indazol-4-yl)imidazo[1,2-a]pyrazin-2-yl)cyclopropane-1-carboxamide] |
| 101 to 500 | CSC(C)C(=O)Nc1cn2cc(-c3c(Cl)c(F)c(NC(C)C)c4[nH]ncc34)ncc2n1 (centres unmarked) [Example 105, N-(6-(5-chloro-6-fluoro-7-(isopropylamino)-1H-indazol-4-yl)imidazo[1,2-a]pyrazin-2-yl)-2-(methylthio)propanamide] |
| < 100 | Cc1c(F)c(C2=CC(O)CC2)c2[nH]ncc2c1-c1cn2cc(NC(=O)[C@@H]3C[C@@H]3F)nc2cn1 (stereo partly drawn) [Example 15, (1S,2S)-2-fluoro-N-(6-(6-fluoro-7-(3-hydroxycyclopent-1-en-1-yl)-5-methyl-1H-indazol-4-yl)imidazo[1,2-a]pyrazin-2-yl)cyclopropane-1-carboxamide] |
| < 100 | CC(C)Nc1c(F)c(Cl)c(-c2cn3cc(NC(=O)C4CC4)nc3cn2)c2cn[nH]c12 [Example 46, N-(6-(5-chloro-6-fluoro-7-(isopropylamino)-1H-indazol-4-yl)imidazo[1,2-a]pyrazin-2-yl)cyclopropanecarboxamide] |
| < 100 | CC(C)Nc1c(F)c(Cl)c(-c2cn3cc(NC(=O)C4CCNC4)nc3cn2)c2cn[nH]c12 (centres unmarked) [Example 74, N-(6-(5-chloro-6-fluoro-7-(isopropylamino)-1H-indazol-4-yl)imidazo[1,2-a]pyrazin-2-yl)pyrrolidine-3-carboxamide] |
| < 100 | CC(CO)c1c(F)c(C(F)(F)F)c(-c2cn3cc(NC(=O)[C@@H]4C[C@@H]4F)nc3cn2)c2cn[nH]c12 (stereo partly drawn) [Example 85, (1S,2S)-2-fluoro-N-(6-(6-fluoro-7-(1-hydroxypropan-2-yl)-5-(trifluoromethyl)-1H-indazol-4-yl)imidazo[1,2-a]pyrazin-2-yl)cyclopropane-1-carboxamide] |
| < 100 | CC(C)Nc1c(F)c(Cl)c(-c2cn3cc(NC(=O)OC(C)C)nc3cn2)c2cn[nH]c12 [Example 95, isopropyl (6-(5-chloro-6-fluoro-7-(isopropylamino)-1H-indazol-4-yl)imidazo[1,2-a]pyrazin-2-yl)carbamate] |
| 101 to 500 | CCOC(C)c1c(F)c(C)c(-c2cn3cc(NC(=O)[C@@H]4C[C@@H]4F)nc3cn2)c2cn[nH]c12 (stereo partly drawn) [Example 3, (1S,2S)-N-(6-(7-(1-ethoxyethyl)-6-fluoro-5-methyl-1H-indazol-4-yl)imidazo[1,2-a]pyrazin-2-yl)-2-fluorocyclopropane-1-carboxamide] |
| < 100 | COc1c(F)c(C(O)C2CC2)c2[nH]ncc2c1-c1cn2cc(NC(=O)[C@@H]3C[C@@H]3F)nc2cn1 (stereo partly drawn) [Example 127, (1S,2S)-N-(6-(7-(cyclopropyl(hydroxy)methyl)-6-fluoro-5-methoxy-1H-indazol-4-yl)imidazo[1,2-a]pyrazin-2-yl)-2-fluorocyclopropane-1-carboxamide] |
| < 100 | O=C(Nc1cn2cc(-c3c(C(F)F)c(F)c(C(O)C4CC4)c4[nH]ncc34)ncc2n1)[C@@H]1C[C@@H]1F (stereo partly drawn) [Example 19, (1S,2S)-N-(6-(7-(cyclopropyl(hydroxy)methyl)-5-(difluoromethyl)-6-fluoro-1H-indazol-4-yl)imidazo[1,2-a]pyrazin-2-yl)-2-fluorocyclopropane-1-carboxamide] |
| < 100 | CC(C)Nc1c(F)c(Cl)c(-c2cn3cc(NC(=O)[C@@H]4C[C@@H]4CF)nc3cn2)c2cn[nH]c12 [Example 94, (1R,2S)-N-(6-(5-chloro-6-fluoro-7-(isopropylamino)-1H-indazol-4-yl)imidazo[1,2-a]pyrazin-2-yl)-2-(fluoromethyl)cyclopropane-1-carboxamide] |
| 101 to 500 | CC(C)Nc1c(F)c(Cl)c(-c2cn3cc(NC(=O)C4CCCO4)nc3cn2)c2cn[nH]c12 (centres unmarked) [Example 111, N-(6-(5-chloro-6-fluoro-7-(isopropylamino)-1H-indazol-4-yl)imidazo[1,2-a]pyrazin-2-yl)tetrahydrofuran-2-carboxamide] |
| < 100 | CC(C)Nc1c(F)c(Cl)c(-c2cn3cc(NC(=O)[C@H](C)N)nc3cn2)c2cn[nH]c12 [Example 79, (S)-2-amino-N-(6-(5-chloro-6-fluoro-7-(isopropylamino)-1H-indazol-4-yl)imidazo[1,2-a]pyrazin-2-yl)propanamide] |
| < 100 | CCOC(=O)Nc1cn2cc(-c3c(Cl)c(F)c(NC(C)C)c4[nH]ncc34)ncc2n1 [Example 114, ethyl (6-(5-chloro-6-fluoro-7-(isopropylamino)-1H-indazol-4-yl)imidazo[1,2-a]pyrazin-2-yl)carbamate] |
